Assay results published in paper PMC4406325 (MedChemComm, 2014).

Target: CDK9/cyclin T1 (Homo sapiens, UniProt P50750)
Experiment: CDK9/Cyclin T1 kinase assay
Format: biochemical
Conditions: among all compounds tested at molecular level

Sequence of CDK9/cyclin T1 (P50750 whole entry): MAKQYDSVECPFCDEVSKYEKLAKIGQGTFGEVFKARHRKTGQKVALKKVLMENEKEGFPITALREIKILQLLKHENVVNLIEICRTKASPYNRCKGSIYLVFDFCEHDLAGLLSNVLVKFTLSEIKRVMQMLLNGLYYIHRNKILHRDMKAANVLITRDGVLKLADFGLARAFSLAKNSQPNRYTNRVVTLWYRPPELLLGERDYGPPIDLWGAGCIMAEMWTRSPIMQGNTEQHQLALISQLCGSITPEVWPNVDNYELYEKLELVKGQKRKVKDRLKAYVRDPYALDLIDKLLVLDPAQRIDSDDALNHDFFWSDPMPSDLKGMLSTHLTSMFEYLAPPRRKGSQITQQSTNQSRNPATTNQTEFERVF
Sequence of CDK9/cyclin T1 (O60563 whole entry partner): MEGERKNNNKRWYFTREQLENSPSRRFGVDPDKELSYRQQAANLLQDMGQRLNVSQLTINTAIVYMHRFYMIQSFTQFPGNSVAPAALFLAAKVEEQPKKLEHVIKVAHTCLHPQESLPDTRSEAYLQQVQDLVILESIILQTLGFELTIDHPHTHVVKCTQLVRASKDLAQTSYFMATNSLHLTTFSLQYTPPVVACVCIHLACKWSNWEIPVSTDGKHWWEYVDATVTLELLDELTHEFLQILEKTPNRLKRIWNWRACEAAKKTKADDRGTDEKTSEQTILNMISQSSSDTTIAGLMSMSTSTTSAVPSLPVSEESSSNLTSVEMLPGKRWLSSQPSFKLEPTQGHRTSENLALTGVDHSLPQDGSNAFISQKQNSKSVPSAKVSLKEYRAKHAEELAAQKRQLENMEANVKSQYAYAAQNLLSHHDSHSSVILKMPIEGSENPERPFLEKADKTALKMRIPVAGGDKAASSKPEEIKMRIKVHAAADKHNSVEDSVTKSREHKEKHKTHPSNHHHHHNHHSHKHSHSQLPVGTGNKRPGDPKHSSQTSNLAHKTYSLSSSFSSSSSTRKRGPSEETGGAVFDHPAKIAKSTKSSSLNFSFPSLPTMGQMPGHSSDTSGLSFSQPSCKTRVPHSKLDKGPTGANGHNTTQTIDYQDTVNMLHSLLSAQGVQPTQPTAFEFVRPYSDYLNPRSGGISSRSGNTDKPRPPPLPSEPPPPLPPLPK

SMILES | selectivity to CDK9 over CDK2 (in words)
O=C(Nc1cccc(Nc2ncc(F)c(Nc3ccc(F)cc3)n2)c1)c1ccncc1 [Compound 9d] | moderate selectivity to CDK9 over CDK2
Fc1cnc(Nc2cccc(N3CCOCC3)c2)nc1Nc1c(F)cccc1F [Compound 6d] | moderate selectivity to CDK9 over CDK2

Tested on: HIV-1 NL4-3
Experiment: Anti-HIV-1 assay
Format: cell-based
Conditions: HIV-1 NL4-3, MT4 cells

SMILES | inhibition in anti-HIV-1 assay (in words)
CC(=O)N1CCCN(C(=O)c2cccc(Nc3ncc(F)c(Nc4ccc(F)cc4)n3)c2)CC1 [Compound 11e] | Appreciable inhibition
CN(C)CCNC(=O)c1cccc(Nc2ncc(F)c(Nc3ccc(F)cc3)n2)c1 [Compound 11f] | Appreciable inhibition
Fc1cnc(Nc2cccc(N3CCOCC3)c2)nc1Nc1c(F)cccc1F [Compound 6d] | Appreciable inhibition

Tested on: KB (nasopharyngeal carcinoma)
Experiment: SRB cytotoxic activity assay, KB
Format: cell-based, human
Conditions: 3 days in culture, average of three independent measurements

SMILES | GI50 KB
COc1cc(NC(=O)c2cccc(Nc3ncc(F)c(Nc4ccc(F)cc4)n3)c2)cc(OC)c1 [Compound 11k] | 15.47 ± 1.58 µM
CN1CCN(C(=O)c2cccc(Nc3ncc(F)c(Nc4ccc(F)cc4)n3)c2)CC1 [Compound 11b] | 12.58 ± 3.05 µM
O=C(c1cccc(Nc2ncc(F)c(Nc3ccc(F)cc3)n2)c1)N1CCCCC1 [Compound 11c] | 14.78 ± 2.53 µM
O=C(Nc1ccccn1)c1cccc(Nc2ncc(F)c(Nc3ccc(F)cc3)n2)c1 [Compound 11n] | 20.03 ± 10.96 µM
Fc1ccc(Nc2nc(Nc3cccc(N4CCOCC4)c3)ncc2F)cc1 [Compound 6c] | > 10 µM
O=C(Nc1cccc(Nc2ncc(F)c(Nc3ccc(F)cc3)n2)c1)c1cccc([N+](=O)[O-])c1 [Compound 9b] | 15.10 ± 1.16 µM
O=C(Nc1ccc(C(F)(F)F)cc1)c1cccc(Nc2ncc(F)c(Nc3ccc(F)cc3)n2)c1 [Compound 11h] | > 10 µM
COc1ccc(N2CCN(C)CC2)cc1Nc1ncc(F)c(Nc2ccc(F)cc2)n1 [Compound 6f] | 0.96 ± 0.21 µM
O=C(c1cccc(Nc2ncc(F)c(Nc3ccc(F)cc3)n2)c1)N1CCOCC1 [Compound 11a] | 14.58 ± 2.93 µM
COc1ccc(N2CCOCC2)cc1Nc1ncc(F)c(Nc2ccc(F)cc2)n1 [Compound 6e] | > 10 µM
CS(=O)(=O)N1CCN(C(=O)c2cccc(Nc3ncc(F)c(Nc4ccc(F)cc4)n3)c2)CC1 [Compound 11d] | 20.29 ± 4.09 µM
Fc1cnc(Nc2cccc(N3CCOCC3)c2)nc1Nc1cc(Cl)cc(Cl)c1 [Compound 6a] | 14.80 ± 1.02 µM
Fc1cnc(Nc2cccc(N3CCOCC3)c2)nc1Nc1ccc(Cl)c(Cl)c1 [Compound 6b] | > 10 µM
O=C(Nc1cc(Cl)cc(Cl)c1)c1cccc(Nc2ncc(F)c(Nc3ccc(F)cc3)n2)c1 [Compound 11m] | 20.08 ± 1.06 µM
CC(=O)N1CCCN(C(=O)c2cccc(Nc3ncc(F)c(Nc4ccc(F)cc4)n3)c2)CC1 [Compound 11e] | 14.88 ± 2.20 µM
CN1CC[C@H](c2c(O)cc(O)c3c(=O)cc(-c4ccccc4Cl)oc23)[C@H](O)C1 [FVP, flavopiridol, reference compound] | 0.16 ± 0.007 µM

SMILES | GI50 KB
O=C(NCCO)c1cccc(Nc2ncc(F)c(Nc3ccc(F)cc3)n2)c1 [Compound 11g] | 12.39 ± 2.48 µM
O=C(Nc1cccc(Nc2ncc(F)c(Nc3ccc(F)cc3)n2)c1)c1ccncc1 [Compound 9d] | 5.28 ± 3.49 µM
O=C(Nc1cccc(Nc2ncc(F)c(Nc3ccc(F)cc3)n2)c1)c1ccccc1 [Compound 9a] | > 10 µM
CN(C)CC(=O)Nc1cccc(Nc2ncc(F)c(Nc3ccc(F)cc3)n2)c1 [Compound 9g] | 1.26 ± 0.05 µM
CN(C)CCNC(=O)c1cccc(Nc2ncc(F)c(Nc3ccc(F)cc3)n2)c1 [Compound 11f] | 4.16 ± 0.69 µM
O=C(Nc1cccc(Nc2ncc(F)c(Nc3ccc(F)cc3)n2)c1)c1cnccn1 [Compound 9e] | 23.55 ± 3.92 µM
O=C(Nc1ccc2c(c1)OCO2)c1cccc(Nc2ncc(F)c(Nc3ccc(F)cc3)n2)c1 [Compound 11l] | 14.08 ± 0.79 µM
Fc1cnc(Nc2cccc(N3CCOCC3)c2)nc1Nc1c(F)cccc1F [Compound 6d] | > 10 µM
COCC(=O)Nc1cccc(Nc2ncc(F)c(Nc3ccc(F)cc3)n2)c1 [Compound 9h] | 6.25 ± 1.38 µM
O=C(Nc1ccc(N2CCOCC2)cc1)c1cccc(Nc2ncc(F)c(Nc3ccc(F)cc3)n2)c1 [Compound 11i] | > 10 µM
Cn1ccnc1NC(=O)c1cccc(Nc2ncc(F)c(Nc3ccc(F)cc3)n2)c1 [Compound 11p] | 14.57 ± 1.70 µM
COc1ccc(NC(=O)c2cccc(Nc3ncc(F)c(Nc4ccc(F)cc4)n3)c2)cc1 [Compound 11j] | > 10 µM
CN(C)c1ccc(C(=O)Nc2cccc(Nc3ncc(F)c(Nc4ccc(F)cc4)n3)c2)cc1 [Compound 9c] | > 10 µM
CN1CCC(C(=O)Nc2cccc(Nc3ncc(F)c(Nc4ccc(F)cc4)n3)c2)CC1 [Compound 9f] | 1.70 ± 0.80 µM
O=C(Nc1nccs1)c1cccc(Nc2ncc(F)c(Nc3ccc(F)cc3)n2)c1 [Compound 11o] | > 10 µM
